Test results from the supplement of paper PMC11061612.

How the values were obtained:
[1] = system: SK-CO-1 (Colorectal Carcinoma); assay: Bliss excess, mean over the matrix (fraction); higher = more synergy
Procedure, shortened: (§1)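 Cell lines grown in DMEM/F12 or RPMI with 10% FBS were plated in 1536-well plates and held 24 hours at 37°C, 5% CO2 before 72 hours of exposure to two-drug dose matrices, with DMSO typically at 0.2%. CellTiter-Glo 2.0 luminescence gave viability, which was converted to inhibition. Vehicle wells were set to 0 and blank wells to 1. Combination Emax is the second-highest inhibition in the matrix, and Bliss excess is the observed combination effect minus the expected EA + EB − EA·EB, where EA and EB are the single-agent effects.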

[2] = system: SNU-423 (Hepatocellular Carcinoma); assay: as above
Procedure, shortened: as §1

[3] = system: ES6 (Ewing's Sarcoma); assay: as above
Procedure, shortened: as §1

[4] = system: MDA-MB-415 (Breast Carcinoma); assay: as above
Procedure, shortened: as §1

[5] = system: C-33-A (Cervical Carcinoma); assay: as above
Procedure, shortened: as §1

[6] = system: CPC-N (Small Cell Lung Carcinoma); assay: as above
Procedure, shortened: as §1

[7] = system: SK-CO-1 (Colorectal Carcinoma); assay: combination Emax (second highest fraction inhibited in the dose matrix, 72 h); higher = more inhibition; extreme values may be limits of the assay
Procedure, shortened: as §1

[8] = system: COR-L88 (Small Cell Lung Carcinoma); assay: as above
Procedure, shortened: as §1

[9] = system: LS-1034 (Colorectal Carcinoma); assay: as above
Procedure, shortened: as §1

[10] = system: SKG-IIIa (Cervical Carcinoma); assay: as above
Procedure, shortened: as §1

[11] = system: SCC-4 (Oral Cavity Carcinoma); assay: as above
Procedure, shortened: as §1

[12] = system: ZR-75-30 (Breast Carcinoma); assay: as above
Procedure, shortened: as §1

[13] = system: ES6 (Ewing's Sarcoma); assay: as above
Procedure, shortened: as §1

[14] = system: SK-N-SH (Neuroblastoma); assay: as above
Procedure, shortened: as §1

[15] = system: HPAF-II (Pancreatic Carcinoma); assay: as above
Procedure, shortened: as §1

[16] = system: T84 (Colorectal Carcinoma); assay: as above
Procedure, shortened: as §1

[17] = system: KALS-1 (Glioblastoma); assay: as above
Procedure, shortened: as §1

[18] = system: NCI-H3118 (Head and Neck Carcinoma); assay: as above
Procedure, shortened: as §1

[19] = system: CPC-N (Small Cell Lung Carcinoma); assay: as above
Procedure, shortened: as §1

[20] = system: LCLC-103H (Non-Small Cell Lung Carcinoma); assay: as above
Procedure, shortened: as §1
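For Bliss excess, mean over the matrix in this document: after 72 h of two-drug dosing.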

For C[C@@H](Oc1cc(-c2cnn(C3CCNCC3)c2)cnc1N)c1c(Cl)ccc(F)c1Cl [Crizotinib] + CC1=C(C(=CC=C1)Cl)NC(=O)C2=CN=C(S2)NC3=CC(=NC(=N3)C)N4CCN(CC4)CCO [Dasatinib] (first compound max 10 µM, 7x7, partner max 2 µM), which Bliss excess [1] is on record?
The Bliss excess was 0.0048.

What about the Bliss excess [2] of the same compound?
The Bliss excess was -0.0038.

What about the Bliss excess [3] of the same compound?
The Bliss excess was -0.0119.

And the Bliss excess [4]?
Its Bliss excess is -0.0332.

What about the Bliss excess [5] of the same compound?
Its Bliss excess is -0.02.

What about the Bliss excess [6] of the same compound?
Its Bliss excess is -0.0989.

What about the “combination Emax” value [7] of the same compound?
Its value is 0.954.

What about the “combination Emax” value [8] of the same compound?
Its value is 0.435.

And the “combination Emax” value [9]?
The value was 0.835.

What about the “combination Emax” value [10] of the same compound?
Its value is 0.734.

And the “combination Emax” value [11]?
The value was 0.913.

And the “combination Emax” value [12]?
Its value is 0.036.

And the “combination Emax” value [13]?
Its value is 0.751.

What about the “combination Emax” value [14] of the same compound?
Its value is 0.859.

What about the “combination Emax” value [15] of the same compound?
Its value is 0.431.

What about the “combination Emax” value [16] of the same compound?
Its value is 0.58.

What about the “combination Emax” value [17] of the same compound?
Its value is 0.925.

And the “combination Emax” value [18]?
The value was 0.881.

What about the “combination Emax” value [19] of the same compound?
The value was 0.584.

And the “combination Emax” value [20]?
The value was 0.722.

How did the Bliss excess [1] turn out when CN(CCO)CC[C@H](CSc1ccccc1)Nc1ccc(S(=O)(=O)NC(=O)c2ccc(N3CCC([C@@H](O)c4ccccc4-c4ccc(Cl)cc4)CC3)cc2)cc1S(=O)(=O)C(F)(F)F [AZD4320] + Nc1ccn([C@@H]2O[C@H](CO)[C@@H](O)C2(F)F)c(=O)n1 [Gemcitabine] (first compound max 1 µM, 7x7, partner max 0.3 µM) was run?
The Bliss excess was -0.0065.

And the Bliss excess [2]?
The Bliss excess was 0.0088.

What about the Bliss excess [3] of the same compound?
Its Bliss excess is 0.0253.

And the Bliss excess [4]?
Its Bliss excess is 0.0347.

What about the Bliss excess [5] of the same compound?
The Bliss excess was 0.0113.

And the Bliss excess [6]?
Its Bliss excess is 0.0415.

What about the “combination Emax” value [7] of the same compound?
Its value is 0.945.

And the “combination Emax” value [8]?
Its value is 0.947.

And the “combination Emax” value [9]?
The value was 0.592.

What about the “combination Emax” value [10] of the same compound?
Its value is 0.475.

And the “combination Emax” value [11]?
The value was 0.743.

What about the “combination Emax” value [12] of the same compound?
The value was 0.216.

What about the “combination Emax” value [13] of the same compound?
The value was 0.824.

What about the “combination Emax” value [14] of the same compound?
Its value is 0.968.

What about the “combination Emax” value [15] of the same compound?
Its value is 0.759.

What about the “combination Emax” value [16] of the same compound?
Its value is 0.508.

And the “combination Emax” value [17]?
Its value is 0.595.

And the “combination Emax” value [18]?
The value was 0.752.

What about the “combination Emax” value [19] of the same compound?
The value was 0.962.

What about the “combination Emax” value [20] of the same compound?
Its value is 0.681.

How did the Bliss excess [1] turn out when N#Cc1cnc(Nc2cc(NC[C@H]3CNCCO3)c(C(F)(F)F)cn2)cn1 [SRA737] + O=c1[nH]cc(F)c(=O)[nH]1 [5-Fluorouracil] (first compound max 10 µM, 7x7, partner max 20 µM) was run?
Its Bliss excess is 0.0188.

What about the Bliss excess [2] of the same compound?
The Bliss excess was 0.0005.

What about the Bliss excess [3] of the same compound?
The Bliss excess was -0.0508.

What about the Bliss excess [4] of the same compound?
Its Bliss excess is 0.057.

What about the Bliss excess [5] of the same compound?
Its Bliss excess is 0.0006.

And the Bliss excess [6]?
The Bliss excess was -0.036.

What about the “combination Emax” value [7] of the same compound?
Its value is 0.654.

What about the “combination Emax” value [8] of the same compound?
The value was 0.435.

What about the “combination Emax” value [9] of the same compound?
The value was 0.77.

And the “combination Emax” value [10]?
Its value is 0.34.

And the “combination Emax” value [11]?
The value was 0.628.

And the “combination Emax” value [12]?
The value was 0.169.

What about the “combination Emax” value [13] of the same compound?
The value was 0.161.

And the “combination Emax” value [14]?
Its value is 0.57.

And the “combination Emax” value [15]?
The value was 0.436.

What about the “combination Emax” value [16] of the same compound?
Its value is 0.785.

What about the “combination Emax” value [17] of the same compound?
The value was 0.792.

And the “combination Emax” value [18]?
The value was 0.575.

And the “combination Emax” value [19]?
The value was 0.861.

What about the “combination Emax” value [20] of the same compound?
The value was 0.559.

What does the source list for Cc1nc(-c2cn3c(n2)-c2ccc(-c4cnn(C(C)(C)C(N)=O)c4)cc2OCC3)n(C(C)C)n1 [Taselisib] + O=C(Nc1ccc2[nH]nc(-c3ccncc3)c2c1)[C@@H]1CCN(CC(=O)N2CCN(c3ccc(-c4ncccn4)cc3)CC2)C1 [SCH772984] (first compound max 10 µM, 7x7, partner max 5 µM)?
Bliss excess [1]: 0.0763; Bliss excess [2]: 0.0656; Bliss excess [3]: -0.0318; Bliss excess [4]: -0.0012; Bliss excess [5]: 0.0551; Bliss excess [6]: 0.0196; combination Emax [7]: 0.975; combination Emax [8]: 0.229; combination Emax [9]: 0.72; combination Emax [10]: 0.633; combination Emax [11]: 0.911; combination Emax [12]: 0.706; combination Emax [13]: 0.639; combination Emax [14]: 0.72; combination Emax [15]: 0.917; combination Emax [16]: 0.96; combination Emax [17]: 0.927; combination Emax [18]: 0.931; combination Emax [19]: 0.484; combination Emax [20]: 0.472

Which results are given for C=CCn1c(=O)c2cnc(Nc3ccc(N4CCN(C)CC4)cc3)nc2n1-c1cccc(C(C)(C)O)n1 [AZD1775] + Nc1ccn([C@@H]2O[C@H](CO)[C@@H](O)C2(F)F)c(=O)n1 [Gemcitabine] (first compound max 1 µM, partner max 0.3 µM)?
Bliss excess [1]: -0.0262; Bliss excess [2]: -0.0538; Bliss excess [3]: -0.0385; Bliss excess [4]: 0.0228; Bliss excess [5]: 0.0713; combination Emax [7]: 0.903; combination Emax [8]: 0.65; combination Emax [10]: 0.643; combination Emax [11]: 0.688; combination Emax [12]: 0.24; combination Emax [13]: 0.556; combination Emax [14]: 0.879; combination Emax [15]: 0.551; combination Emax [16]: 0.85; combination Emax [17]: 0.929; combination Emax [18]: 0.872; combination Emax [19]: 0.897; combination Emax [20]: 0.753

N#Cc1cnc(Nc2cc(NC[C@H]3CNCCO3)c(C(F)(F)F)cn2)cn1 [SRA737] + C=CCn1c(=O)c2cnc(Nc3ccc(N4CCN(C)CC4)cc3)nc2n1-c1cccc(C(C)(C)O)n1 [AZD1775] (first compound max 10 µM, partner max 1 µM) was tested. Which Bliss excess [1] did it give?
The Bliss excess was 0.0306.

And the Bliss excess [2]?
Its Bliss excess is 0.0786.

What about the Bliss excess [3] of the same compound?
Its Bliss excess is 0.0022.

And the Bliss excess [4]?
Its Bliss excess is 0.0133.

What about the Bliss excess [5] of the same compound?
The Bliss excess was 0.0919.

What about the Bliss excess [6] of the same compound?
Its Bliss excess is 0.0589.

What about the “combination Emax” value [7] of the same compound?
Its value is 0.631.

And the “combination Emax” value [8]?
The value was 0.685.

What about the “combination Emax” value [9] of the same compound?
The value was 0.809.

What about the “combination Emax” value [10] of the same compound?
Its value is 0.465.

What about the “combination Emax” value [11] of the same compound?
Its value is 0.64.

What about the “combination Emax” value [12] of the same compound?
The value was 0.266.

And the “combination Emax” value [13]?
Its value is 0.349.

And the “combination Emax” value [14]?
Its value is 0.804.

What about the “combination Emax” value [15] of the same compound?
The value was 0.495.

What about the “combination Emax” value [16] of the same compound?
Its value is 0.853.

And the “combination Emax” value [17]?
The value was 0.927.

And the “combination Emax” value [18]?
The value was 0.876.

And the “combination Emax” value [20]?
Its value is 0.711.

C[C@@H]1COCCN1c1cc(C2([S@](C)(=N)=O)CC2)nc(-c2ccnc3[nH]ccc23)n1 [AZD6738] + C1CC(C1)(C(=O)[O-])C(=O)[O-].N.N.[Pt+2] [Carboplatin] (first compound max 10 µM, 7x7, partner max 10 µM) was tested. Which Bliss excess [1] did it give?
Its Bliss excess is 0.0009.

What about the Bliss excess [2] of the same compound?
The Bliss excess was -0.0425.

What about the Bliss excess [3] of the same compound?
Its Bliss excess is -0.0116.

What about the Bliss excess [4] of the same compound?
Its Bliss excess is 0.0134.

And the Bliss excess [5]?
Its Bliss excess is -0.0043.

What about the Bliss excess [6] of the same compound?
The Bliss excess was -0.0391.

And the “combination Emax” value [7]?
The value was 0.808.

And the “combination Emax” value [8]?
The value was 0.299.

And the “combination Emax” value [9]?
Its value is 0.677.

And the “combination Emax” value [10]?
Its value is 0.407.

What about the “combination Emax” value [11] of the same compound?
Its value is 0.552.

And the “combination Emax” value [12]?
Its value is 0.262.

What about the “combination Emax” value [14] of the same compound?
Its value is 0.818.

And the “combination Emax” value [15]?
Its value is 0.36.

And the “combination Emax” value [16]?
The value was 0.731.

And the “combination Emax” value [17]?
Its value is 0.802.

What about the “combination Emax” value [18] of the same compound?
The value was 0.61.

What about the “combination Emax” value [19] of the same compound?
Its value is 0.8.

And the “combination Emax” value [20]?
The value was 0.385.
